From patent US9688624B2, “DP2 antagonist and uses thereof” (Brickell Biotech, Inc., priority 2010, dated 2017)
Structures can show the parent of a compound that is named as a salt. Where two headings read alike, the source gives them in different places.

Key:
[1] = biological target: mouse DP2 (Mus musculus (Mouse), UniProt Q9Z2J6); assay: In vitro DP2/CRTH2 radioligand ([3H]PGD2) membrane binding assay; details: average
Procedure: Example 15: In Vitro DP2/CRTH2 Binding Assay
The ability of Compound 1 to bind to the human DP2 receptor was assessed via a radioligand binding assay using [^3H]PGD2. HEK293 cells stably expressing recombinant human DP2 are resuspended in 10 mM Hepes, 7.4 containing 1 mM DTT, lysed and centrifuged at 75,000×g to pellet the membranes. The membranes are resuspended in 10 mM Hepes, 7.4 containing 1 mM DTT and 10% glycerol to approximately 5 mg protein/ml. Membranes (2-10 μg protein/well) are incubated in 96-well plates with 1 nM [^3H]PGD2 and Compound 1 in Assay Buffer (50 mM Hepes, 10 mM MnCl2, 1 mM EDTA, plus or minus 0.2% human serum albumin, pH 7.4) for 60 minutes at room temperature. The reactions are terminated by rapid filtration through Whatman GF/C glass fibre filter plates. The filter plates were pre-soaked in 0.33% polythylenimine for 30 minutes at room temperature then washed in Wash Buffer (50 mM Hepes, 0.5 M NaCl pH 7.4) prior to harvesting. After harvesting, the filter plates are washed 3 times with 1 ml cold Wash Buffer then dried. Scintillant is then added to the plates and the radioactivity retained on the filters is determined on a Packard TopCount (Perkin Elmer). Specific binding is determined as total radioactive binding minus non-specific binding in the presence of 10 μM PGD2. IC50s were determined using GraphPad prism analysis of drug titration curves. Mouse, rat and guinea pig DP2 receptors were also investigated.
The binding potency of Compound 1 is only slightly shifted in the presence of species-specific serum albumin.

[2] = Plasma concentrations in guinea pig allergic asthma model; assay type: in vivo; details: for concentration at 3 h: oral, 3 hours post dose, read-out: mean plasma Compound 1 concentration
Procedure: Plasma Compound 1 concentrations were determined 3 hours and 24 hours post dose. […] At 60 mg/kg, a mean plasma concentration of 371.7±303.8 was observed 3 hours post dose. At 100 mg/kg, a mean plasma concentration of 360.8±131.3 was observed 3 hours post dose.

[3] = biological target: CYP2D6 (Homo sapiens (Human), UniProt P10635); assay: Extracellular cytochrome P450 inhibition (microsomes); assay type: in vitro ADME; details: 2D6, dextromethorphan O-demethylation
[4] = Gravimetric vapour sorption (GVS); assay type: physicochemical; details: 25° C.
Procedure: Example 5: Gravimetric Vapour Sorption (GVS)
Sorption isotherms were obtained using a SMS DVS Intrinsic moisture sorption analyzer, controlled by SMS Analysis Suite software. The sample temperature was maintained at 25° C. by the instrument controls. The humidity was controlled by mixing streams of dry and wet nitrogen, with a total flow rate of 200 ml·min-1. The relative humidity was measured by a calibrated Rotronic probe (dynamic range of 1.0-100% RH), located near the sample. The weight change, (mass relaxation) of the sample as a function of % RH was constantly monitored by the microbalance (accuracy ±0.005 mg). Typically 5-20 mg of sample was placed in a tared mesh stainless steel basket under ambient conditions. The sample was loaded and unloaded at 40% RH and 25° C. (typical room conditions). A moisture sorption isotherm was performed as outlined below (2 scans giving 1 complete cycle). The standard isotherm was performed at 25° C. at 10% RH intervals over a 0.5-90% RH range

[5] = Capsule formulation pharmacokinetics in male Beagle dogs; assay type: in vivo; details: dog, fasted; for half-life: read-out: t1/2 24 hr (converted)
Procedure: In a separate study, male Beagle dogs were dosed with the capsule formulations as described herein.

[6] = test system: ovalbumin (OVA)-induced allergic rhinitis; assay: Mouse allergic rhinitis model; assay type: in vivo; details: 10 mg/kg PO daily
Procedure: Example 18: Mouse Allergic Rhinitis Model
Compound 2 was evaluated in a mouse model of ovalbumin (OVA)-induced allergic rhinitis in which nasal ovalbumin challenges to OVA-primed mice elicits an increase in sneezing and nasal rubs (Methods were adapted from those detailed in Nakaya, M., et al. 2006, Laboratory Investigation, 86:917-926). OVA-primed mice received an intranasal challenge of OVA daily for 5 consecutive days. The number of sneezes and nasal rubs were counted over an 8 minute recording session on days 1, 3 and 5 immediately following OVA challenge. OVA caused a significant increase in both sneezing behavior and nasal rubs when compared to intranasal phosphate buffered saline (PBS) challenge. […] The plasma exposure for Compound 1 measured in a satellite group was 1360 nM, 460 nM, 210 nM and 90 nM for time points 1, 2, 4, and 6 hr post-dose, respectively.

[7] = test system: smoke-induced pulmonary inflammation; assay: Mouse smoke model of chronic obstructive pulmonary disease; assay type: in vivo; details: 10 and 50 mg/kg PO daily
Procedure: Example 21: Mouse Smoke Model of Chronic Obstructive Pulmonary Disease
A mouse model of acute cigarette smoke exposure was used to determine the effects of Compound 1 on smoke-induced pulmonary inflammation.
BALB/c mice were exposed to the smoke of 7 unfiltered cigarettes per day via whole-body exposure on days 0, 1, and 2 for a total of 1.75 hours per day. […] The plasma concentrations for Compound 1 measured at trough were 85 and 588 nM at 10 mg/kg and 50 mg/kg, respectively.

[8] = biological target: DP2 receptor (Homo sapiens (Human), UniProt Q9Y5Y4); assay: Phase I single ascending dose study, ex vivo PGD2-induced blood eosinophil shape change (ESC); assay type: in vivo; details: humans
Procedure: Procedure Evaluate Effects of Compound 1 on Ex Vivo PGD2-Induced Blood Eosinophil Shape Change (ESC)
Pre dose blood is drawn and challenged with PGD2 to determine baseline shape change as described above in Example 17. At varying times after dosing blood is drawn for both pharmacokinetic analyses of drug concentration in blood, and also for PGD2 challenge and eosinophil shape change determination. The extent of receptor blockage is determined from the relationship between drug blood concentration and percentage inhibition of eosinophil shape change.

[9] = male, Beagle, in vivo, po, Capsule, 5.6 mg/kg
[10] = male, Beagle, in vivo, po, EC-Capsule (L100-55), 5 mg/kg
[11] = male, Beagle, in vivo, IV saline, 2 mg/kg

DP2 receptor, sequence (Q9Y5Y4 whole entry): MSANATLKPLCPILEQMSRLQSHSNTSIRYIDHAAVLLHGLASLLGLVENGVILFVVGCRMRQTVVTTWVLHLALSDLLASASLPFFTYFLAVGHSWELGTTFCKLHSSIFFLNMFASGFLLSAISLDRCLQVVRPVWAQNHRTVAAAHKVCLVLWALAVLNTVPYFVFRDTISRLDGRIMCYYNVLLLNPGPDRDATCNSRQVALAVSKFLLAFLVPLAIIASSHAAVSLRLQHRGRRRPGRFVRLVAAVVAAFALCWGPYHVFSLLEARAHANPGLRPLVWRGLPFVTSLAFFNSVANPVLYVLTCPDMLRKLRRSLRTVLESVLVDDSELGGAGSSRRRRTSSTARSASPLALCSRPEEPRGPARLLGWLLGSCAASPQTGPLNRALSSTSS
mouse DP2, sequence (Q9Z2J6 whole entry): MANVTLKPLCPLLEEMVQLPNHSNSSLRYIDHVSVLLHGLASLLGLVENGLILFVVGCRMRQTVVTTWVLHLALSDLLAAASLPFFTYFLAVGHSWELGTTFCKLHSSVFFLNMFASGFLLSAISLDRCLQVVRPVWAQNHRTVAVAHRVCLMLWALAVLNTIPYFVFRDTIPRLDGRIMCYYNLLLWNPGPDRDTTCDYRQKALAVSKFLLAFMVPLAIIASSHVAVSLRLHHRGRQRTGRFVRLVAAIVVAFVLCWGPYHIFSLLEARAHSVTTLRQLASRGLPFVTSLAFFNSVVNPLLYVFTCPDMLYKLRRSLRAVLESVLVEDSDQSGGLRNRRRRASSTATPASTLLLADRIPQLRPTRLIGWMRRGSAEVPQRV
CYP2D6, sequence (P10635 whole entry): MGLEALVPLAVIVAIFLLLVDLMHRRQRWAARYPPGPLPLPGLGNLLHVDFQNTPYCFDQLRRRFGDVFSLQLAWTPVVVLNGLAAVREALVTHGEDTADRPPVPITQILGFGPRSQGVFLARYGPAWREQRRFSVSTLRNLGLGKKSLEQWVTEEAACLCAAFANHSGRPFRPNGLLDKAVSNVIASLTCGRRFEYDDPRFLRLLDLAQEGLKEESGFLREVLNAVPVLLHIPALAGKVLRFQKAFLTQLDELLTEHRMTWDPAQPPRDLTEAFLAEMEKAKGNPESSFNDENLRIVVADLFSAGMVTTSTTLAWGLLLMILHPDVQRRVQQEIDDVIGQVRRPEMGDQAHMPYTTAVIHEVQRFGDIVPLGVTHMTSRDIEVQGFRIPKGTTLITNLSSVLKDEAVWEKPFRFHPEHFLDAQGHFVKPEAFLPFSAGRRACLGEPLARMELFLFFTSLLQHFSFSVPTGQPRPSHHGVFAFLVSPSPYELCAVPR

COc1ccc(CC(=O)O)cc1Oc1ccc(NC(=O)C(C)(C)C)cc1CSC(C)(C)C [Compound 1, 2-(3-(2-((tert-butylthio)methyl)-4-(2,2-dimethyl-propionylamino)phenoxy)-4-methoxyphenyl)acetic acid]
IC50 ([1]; 0.2% species-specific albumin, read-out: IC50, radioligand membrane binding on mouse DP2): 11.4 nM
IC50 ([1]; without serum albumin, read-out: IC50, inhibition of radiolabeled PGD2 binding to mouse DP2): 9.7 nM
concentration at 24 h ([2]; 24 hours after oral dose, each dose amount, below lower limit of quantitation, read-out: plasma Compound 1 concentration): < 40 nM
concentration at 3 h ([2]; 30 mg/kg): 107 ± 31.7 nM
concentration at 3 h ([2]; 60 mg/kg): 372 ± 304 nM
concentration at 3 h ([2]; 100 mg/kg): 361 ± 131 nM

COc1ccc(CC(=O)O)cc1Oc1ccc(NC(=O)C(C)(C)C)cc1CSC(C)(C)C [Compound 2, 2-(3-(2-((tert-butylthio)methyl)-4-(2,2-dimethyl-propionylamino)phenoxy)-4-methoxyphenyl)acetic acid, sodium salt]
IC50 [3]: > 50000 nM
hygroscopicity (GVS observation) ([4]; listed as Amorphous Compound 2, sodium salt): deliquesced
GVS mass change ([4]; at 80% R.H.): > 30 % w/w
CO ([5]; IV saline, 2 mg/kg): 10.3 µg/mL
ClPl ([5]; IV saline, 2 mg/kg): 5.0 mL/min/kg
AUC [5, 9]: 14300 ng·h/mL
Cmax [5, 9]: 4800 ng/mL
Tmax [5, 9]: 2.1 h
bioavailability [5, 9]: 78.6%
half-life [5, 9]: 2.8 h
AUC [5, 10]: 20900 ng·h/mL
Cmax [5, 10]: 14400 ng/mL
Tmax [5, 10]: 1 h
bioavailability [5, 10]: 128%
half-life [5, 10]: 2.4 h
AUC [5, 11]: 6500 ng·h/mL
Tmax [5, 11]: 0.1 h
Vd ([5]; male, Beagle, in vivo, IV saline, 2 mg/kg, read-out: VDss): 0.9 L/kg
half-life [5, 11]: 5.1 h
nasal responses (sneezes and nasal rubs) after OVA challenge [6]: significantly reduced
BALF lymphocytes [7]: trend toward reducing
decrease of BALF neutrophils compared to the untreated group [7]: approx. 50%
24 hr PD response (inhibition of ex vivo ESC) ([8]; 500 mg single dose, 24 hr): ~50%
pharmacodynamic dose response (ex vivo ESC inhibition) ([8]; >150 mg, at 0.5, 2 hr and 8 hr): maximal inhibition achieved
